Laboratory results reported in patent US20260199323A1, “LIGAND COMPOUNDS FOR E3 UBIQUITIN LIGASE, PROTEIN DEGRADERS DEVELOPED ON BASIS OF LIGAND COMPOUNDS, AND USES THEREOF” (GLUETACS THERAPEUTICS (SHANGHAI) CO., LTD., priority 2021, published 2026).
Like-named read-outs stand apart in the source and are kept apart here. Values belong to the molecule of their own block, whether it stands above or below them.

Assays:
CCRF-CEM = test: CCK-8 tumor cell proliferation, CCRF-CEM; assay type: cell-based, Human; design: IC50 for inhibiting the proliferation of tumor cells, CCRF-CEM: scale not given here; settings: 96 h
Outline: (§1)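 Viability determined colorimetrically with CCK-8 following compound treatment. Dosing began 24 h post-plating using ten 5-fold dilutions capped at 10 μM; growth-inhibition curves yielded IC50.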

MDA-MB-231 = test: CCK-8 tumor cell proliferation, MDA-MB-231; assay type: cell-based, Human; design: IC50 for inhibiting the proliferation of tumor cells, MDA-MB-231: scale not given here; settings: for IC50: Homo sapiens, MDA-MB-231
Outline: as §1

MM.1S = test: CCK-8 tumor cell proliferation, MM.1S; assay type: cell-based; settings: Table 7, designed based on BTK inhibitors, 72 h
Outline: as §1

22RV1 = test: CCK-8 tumor cell proliferation, 22RV1; design: species or system Human; settings: Table 7, designed based on BTK inhibitors, 96 h
Experimental: (§2) The tumor cells used herein were cultured in a cell culture medium listed in table 4 at 37° C. in an incubator with 5% CO2. Prior to experimentation, all cells used were correctly identified by STR profiling, and tested negative for mycoplasma through routine screenings.
(§3) IC50 values of the compounds of the present disclosure (including the compounds in Tables 1 and 3, and compounds of examples) were measured using the Meilun Cell Counting Kit-8 kit from Dalian Meilun Biotech Co., Ltd. Assay details are as follows: tumor cells were seeded in a 96-well plate at a density listed in Table 5. After 24 h, 100 μL of the inoculated cells were treated with 0.5 μL of the compounds of the present disclosure (including the compounds in Tables 1 and 3, and compounds of examples) at 10 different successively decreasing concentrations (starting at the highest concentration of 10 μM; 5-fold serial dilutions). After the cells were treated with the compounds of the present disclosure for a period of time, the cell viability detection reagent was added to the culture medium for cell viability assessment according to the instructions provided with the CCK-8 kit. […] The growth inhibition of the compounds of the present disclosure on cells was plotted by Prism Graphpad software, and the IC50 values of the compounds of the present disclosure were calculated therefrom.

THP-1 = test: CCK-8 tumor cell proliferation, THP-1; assay type: cell-based, Human; settings: 72 h
Experimental: as §2, §3

Vcap = test: CCK-8 tumor cell proliferation, Vcap; assay type: cell-based, Human; settings: 96 h, 96 h
Outline: as §1

CAL-62 = test: CCK-8 tumor cell proliferation, CAL-62; assay type: cell-based, Human; settings: Homo sapiens, CAL-62
Outline: as §1

MGC-803 = test: CCK-8 tumor cell proliferation, MGC-803; settings: Homo sapiens, Table 18, FAK inhibitor based, MGC803, read-out: IC50 inhibiting proliferation of tumor cells, MGC803
Experimental: as §2, §3

Mino = test: CCK-8 tumor cell proliferation, Mino; assay type: cell-based, Human
Outline: as §1

MV-4-11 = test: CCK-8 tumor cell proliferation, MV-4-11; assay type: cell-based, Human; settings: Table 7, designed based on BTK inhibitors; 72 h
Outline: as §1

Kasumi-1 = test: CCK-8 tumor cell proliferation, Kasumi-1; assay type: cell-based, Human; settings: Table 7, designed based on BTK inhibitors; 72 h
Outline: as §1

NCI-H1975 = test: CCK-8 tumor cell proliferation, NCI-H1975; assay type: cell-based, Human
Outline: as §1

HCC827 = test: CCK-8 tumor cell proliferation, HCC827; assay type: cell-based, Human; settings: Homo sapiens; Table 15, ALK inhibitor based; HCC827; read-out: IC50 inhibiting proliferation of tumor cells, HCC827
SR = test: CCK-8 tumor cell proliferation, SR; assay type: cell-based, Human; settings: Homo sapiens; Table 15, ALK inhibitor based; SR; read-out: IC50 inhibiting proliferation of tumor cells, SR
Outline: as §1

MM.1R = test: CCK-8 tumor cell proliferation, MM.1R; assay type: cell-based; settings: Table 23, compared to Comparative Example compounds, read-out: Inhibitory activity (IC50, nM) against tumor cell proliferation, MM.1R
Outline: as §1

PC-9 = test: CCK-8 tumor cell proliferation, PC-9; assay type: cell-based, Human; settings: Homo sapiens; Table 15, ALK inhibitor based; PC-9; read-out: IC50 inhibiting proliferation of tumor cells, PC-9
NCI-H2228 = test: CCK-8 tumor cell proliferation, NCI-H2228; settings: Homo sapiens, Table 15, ALK inhibitor based, read-out: IC50 inhibiting proliferation of tumor cells, NCI-H2228
Experimental: as §2, §3

Jurkat = test: CCK-8 tumor cell proliferation, Jurkat; assay type: cell-based, Human; settings: Homo sapiens, Table 23, compared to Comparative Example compounds, read-out: Inhibitory activity (IC50, nM) against tumor cell proliferation, Jurkat
Outline: as §1

[1] = Table 18, FAK inhibitor based, read-out: IC50 inhibiting proliferation of tumor cells, CAL-62
[2] = Table 7, designed based on BTK inhibitors, 96 h
[3] = Table 11, designed based on EGFR inhibitors
[4] = Table 7, designed based on BTK inhibitors

SMILES: C=CC(=O)N1CCC[C@@H](n2nc(-c3ccc(Oc4ccccc4)cc3)c3c(N)ncnc32)C1 [ibrutinib, Ibrutinib, reference compound]
IC50 (CCRF-CEM; Homo sapiens, CCRF-CEM, Table 7, designed based on BTK inhibitors, read-out: IC50 for inhibiting the proliferation of tumor cells, CCRF-CEM): > 10 µM
IC50 (MDA-MB-231; Table 7, designed based on BTK inhibitors, 96 h, read-out: IC50 for inhibiting the proliferation of tumor cells, MDA-MB-231): > 10 µM
IC50 (MM.1S; Homo sapiens, MM1.S, read-out: IC50 for inhibiting the proliferation of tumor cells, MM.1S): > 10 µM
IC50 (22RV1; Homo sapiens, 22Rv1, read-out: IC50 for inhibiting the proliferation of tumor cells, 22RV1): > 10 µM
IC50 (THP-1; Homo sapiens, THP-1, Table 7, designed based on BTK inhibitors, read-out: IC50 for inhibiting the proliferation of tumor cells, THP-1): > 10 µM
IC50 (Vcap; Homo sapiens, VCaP, Table 7, designed based on BTK inhibitors, read-out: IC50 for inhibiting the proliferation of tumor cells, Vcap): > 10 µM

SMILES: CNC(=O)c1ccccc1Nc1cc(Nc2cc(C)c(N3CCC(N(C)Cc4cc5c(cc4F)C(=O)N(C4CCC(=O)NC4=O)C5)CC3)cc2OC(C)C)ncc1C(F)(F)F (stereo not shown) [GT-04092, 2-((2-((4-(4-(((2-(2,6-dioxopiperidin-3-yl)-6-fluoro-1-oxoisoindolin-5-yl)methyl)(methyl)amino)piperidin-1-yl)-2-isopropoxy-5-methylphenyl)amino)-5-(trifluoromethyl)pyridin-4-yl)amino)-N-methylbenzamide]
IC50 (CAL-62; [1]): 100 to 500 nM
IC50 (MGC-803): < 0.05 µM

SMILES: CNC(=O)c1ccccc1Nc1cc(Nc2cc(C)c(N3CCC(N(C)Cc4cc(F)c5c(c4)CN(C4CCC(=O)NC4=O)C5=O)CC3)cc2OC(C)C)ncc1C(F)(F)F (stereo not shown) [GT-04093, 2-((2-((4-(4-(((2-(2,6-dioxopiperidin-3-yl)-7-fluoro-1-oxoisoindolin-5-yl)methyl)(methyl)amino)piperidin-1-yl)-2-isopropoxy-5-methylphenyl)amino)-5-(trifluoromethyl)pyridin-4-yl)amino)-N-methylbenzamide]
IC50 (CAL-62; [1]): 50 to 100 nM
IC50 (MGC-803): < 0.05 µM

SMILES: CNC(=O)c1ccccc1Nc1cc(Nc2cc(C)c(N3CCC(N(C)Cc4ccc5c(c4F)CN(C4CCC(=O)NC4=O)C5=O)CC3)cc2OC(C)C)ncc1C(F)(F)F (stereo not shown) [GT-04091, 2-((2-((4-(4-(((2-(2,6-dioxopiperidin-3-yl)-4-fluoro-1-oxoisoindolin-5-yl)methyl)(methyl)amino)piperidin-1-yl)-2-isopropoxy-5-methylphenyl)amino)-5-(trifluoromethyl)pyridin-4-yl)amino)-N-methylbenzamide]
IC50 (CAL-62; [1]): < 50 nM
IC50 (MGC-803): 0.05 to 0.1 µM

Second part, the molecule after the results:

IC50 (CAL-62; [1]): 50 to 100 nM
IC50 (MGC-803): < 0.05 µM
SMILES: CNC(=O)c1ccccc1Nc1cc(Nc2cc(C)c(N3CCC(N(C)Cc4ccc5c(c4)CN(C4CCC(=O)NC4=O)C5=O)CC3)cc2OC(C)C)ncc1C(F)(F)F (stereo not shown) [GT-04090, 2-((2-((4-(4-(((2-(2,6-dioxopiperidin-3-yl)-1-oxoisoindolin-5-yl)methyl)(methyl)amino)piperidin-1-yl)-2-isopropoxy-5-methylphenyl)amino)-5-(trifluoromethyl)pyridin-4-yl)amino)-N-methylbenzamide]

IC50 for inhibiting the proliferation of tumor cells, MDA-MB-231 (MDA-MB-231; [2]): A+
IC50 for inhibiting the proliferation of tumor cells, MM.1S (MM.1S): A+
IC50 for inhibiting the proliferation of tumor cells, 22RV1 (22RV1): A+
IC50 for inhibiting the proliferation of tumor cells, Mino (Mino; Table 7, designed based on BTK inhibitors, 72 h): A+
IC50 for inhibiting the proliferation of tumor cells, MV-4-11 (MV-4-11): A+
SMILES: Nc1ncnc2c1c(-c1ccc(Oc3ccccc3)cc1)nn2C1CCN(Cc2ccc3c(c2)CN(C2CCC(=O)NC2=O)C3=O)CC1F (stereo not shown) [GT-02652, 3-(5-((4-(4-amino-3-(4-phenoxyphenyl)-1H-pyrazolo[3,4-d]pyrimidin-1-yl)-3-fluoropiperidin-1-yl)methyl)-1-oxoisoindolin-2-yl)piperidine-2,6-dione]

IC50 for inhibiting the proliferation of tumor cells, CCRF-CEM (CCRF-CEM; [3]): A+
IC50 for inhibiting the proliferation of tumor cells, THP-1 (THP-1; [3]): A+
IC50 for inhibiting the proliferation of tumor cells, Vcap (Vcap; [3]): A+
SMILES: O=C1CCC(N2Cc3cc(CN4CCC(N5CCN(c6ccc(-c7cc(F)c8c(c7)C(=O)N(C(C(=O)Nc7nccs7)c7ncn9c7CCC9)C8)cc6)CC5)C(F)(F)C4)ccc3C2=O)C(=O)N1 (stereo not shown) [GT-04459, 2-(6,7-dihydro-5H-pyrrolo[1,2-c]imidazol-1-yl)-2-(6-(4-(4-(1-((2-(2,6-dioxopiperidin-3-yl)-1-oxoisoindolin-5-yl)methyl)-3,3-difluoropiperidin-4-yl)piperazin-1-yl)phenyl)-4-fluoro-1-oxoisoindolin-2-yl)-N-(thiazol-2-yl)acetamide]

IC50 for inhibiting the proliferation of tumor cells, THP-1 (THP-1; [4]): A+
SMILES: NC(=O)c1ccc(N2CCN(Cc3ccc4c(c3)CN(C3CCC(=O)NC3=O)C4=O)CC2)nc1-c1ccc(Oc2ccccc2)cc1 (stereo not shown) [GT-03636, 6-(4-((2-(2,6-dioxopiperidin-3-yl)-1-oxoisoindolin-5-yl)methyl)piperazin-1-yl)-2-(4-phenoxyphenyl)nicotinamide]

IC50 for inhibiting the proliferation of tumor cells, CCRF-CEM (CCRF-CEM; [4]): A+
IC50 for inhibiting the proliferation of tumor cells, Kasumi-1 (Kasumi-1): A+
IC50 for inhibiting the proliferation of tumor cells, MDA-MB-231 (MDA-MB-231; [2]): A+
IC50 for inhibiting the proliferation of tumor cells, MM.1S (MM.1S): A+
IC50 for inhibiting the proliferation of tumor cells, NCI-H1975 (NCI-H1975; [2]): A+
IC50 for inhibiting the proliferation of tumor cells, THP-1 (THP-1; [4]): A+
IC50 for inhibiting the proliferation of tumor cells, Vcap (Vcap; [4]): A+
SMILES: Nc1ncnc2c1c(-c1ccc(Oc3ccccc3)cc1)nn2C1CCN(Cc2ccc3c(c2F)CN(C2CCC(=O)NC2=O)C3=O)CC1 (stereo not shown) [GT-03472, 3-(5-((4-(4-amino-3-(4-phenoxyphenyl)-1H-pyrazolo[3,4-d]pyrimidin-1-yl)piperidin-1-yl)methyl)-4-fluoro-1-oxoisoindolin-2-yl)piperidine-2,6-dione]

IC50 (HCC827): 0.05 to 0.1 µM
IC50 (MDA-MB-231; Table 15, ALK inhibitor based, read-out: IC50 inhibiting proliferation of tumor cells, MDA-MB-231): 0.05 to 0.1 µM
IC50 (SR): < 0.05 µM
IC50 (NCI-H1975; Homo sapiens, Table 15, ALK inhibitor based, NCI-H1975, read-out: IC50 inhibiting proliferation of tumor cells, NCI-H1975): < 0.05 µM
IC50 (Mino; Homo sapiens, Table 15, ALK inhibitor based, Mino, read-out: IC50 inhibiting proliferation of tumor cells, Mino): 1 to 5 µM
IC50 (MM.1R): 100 to 500 nM
IC50 (PC-9): 0.05 to 0.1 µM
IC50 (NCI-H2228): 0.05 to 0.1 µM
IC50 (Jurkat): 1000 to 5000 nM
IC50 (CAL-62; Table 23, compared to Comparative Example compounds, read-out: Inhibitory activity (IC50, nM) against tumor cell proliferation, CAL-62): < 50 nM
SMILES: COc1cc(N2CCC(N(C)Cc3ccc4c(c3)CN(C3CCC(=O)NC3=O)C4=O)CC2)ccc1Nc1ncc(Cl)c(Nc2ccccc2P(C)(C)=O)n1 (stereo not shown) [GT-03319, 3-(5-(((1-(4-((5-chloro-4-((2-(dimethylphosphoryl)phenyl)amino)pyrimidin-2-yl)amino)-3-methoxyphenyl)piperidin-4-yl)(methyl)amino)methyl)-1-oxoisoindolin-2-yl)piperidine-2,6-dione]
